These molecules were tested against human LPAR1 (Homo sapiens, UniProt Q92633) (assay: In vitro functional assay of lysophosphatidic acid receptor 1 activity (calcium flux)). Conditions: B103 cells stably expressing human LPAR1; calcium flux (Fluo-4 NW) after lysophosphatidic acid (18:1) at EC80; 100 pM to 10 μM; read-out: LPAR1 IC50.
Chain of human LPAR1 (Q92633 whole entry): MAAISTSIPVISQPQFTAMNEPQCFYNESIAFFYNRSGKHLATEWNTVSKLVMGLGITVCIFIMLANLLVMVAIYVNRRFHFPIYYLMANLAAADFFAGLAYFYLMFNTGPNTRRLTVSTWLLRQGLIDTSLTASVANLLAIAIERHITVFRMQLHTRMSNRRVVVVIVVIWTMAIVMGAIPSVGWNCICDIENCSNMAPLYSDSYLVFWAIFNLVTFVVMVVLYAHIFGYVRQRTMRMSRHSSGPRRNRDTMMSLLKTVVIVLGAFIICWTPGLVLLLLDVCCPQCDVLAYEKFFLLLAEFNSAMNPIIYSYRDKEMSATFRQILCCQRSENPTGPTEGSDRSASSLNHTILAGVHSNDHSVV
Assay type: cell-based
Work on `Cc1ccc(NC(=O)N(C[C@H]2CCN2C(=O)OC(C)(C)C)c2ccccc2C(C)C)c(OC(F)F)n1` [Example 11, tert-butyl (R)-2-((3-(2-(difluoromethoxy)-6-methylpyridin-3-yl)-1-(2-isopropylphenyl)ureido)methyl)azetidine-1-carboxylate] yielded an IC50 greater than 1000 nM.
In the case of `[2H]C([2H])([2H])c1ccc(NC(=O)N(c2ccccc2C(C)C)[C@H]2CC[C@H](C(=O)O)CC2)c(OC(F)F)n1` [Example 156, trans-4-(3-(2-(difluoromethoxy)-6-(methyl-d3)pyridin-3-yl)-1-(2-isopropylphenyl)ureido)cyclohexane-1-carboxylic acid], the IC50 is reported as less than 10 nM.
`Cc1ccc(NC(=O)N(c2ccccc2C(C)C)[C@H]2CC[C@@](C)(C(=O)O)CC2)c(OC(F)F)n1` [Example 308] gave an IC50 of 100 to 1000 nM.
`COc1cc(Cl)c(F)cc1NC(=O)N(c1ccccc1C(C)C)[C@H]1C[C@@H](CC(=O)O)C1` [Example 330] gave an IC50 of less than 10 nM.
`Cc1ccc(NC(=O)N(CC23CC(C(=O)O)(CO2)C3)c2ccccc2C(C)C)c(OC(F)F)n1` [Example 168] was tested, and the IC50 was 10 to 100 nM.
Molecule `CC(=O)N(C(C)=O)[C@H]1CC[C@H](N(C(=O)Nc2ccc(C)nc2OC(F)F)c2ccccc2C(C)C)CC1` [Example 265, N-acetyl-N-((1r,4r)-4-(3-(2-(difluoromethoxy)-6-methylpyridin-3-yl)-1-(2-isopropylphenyl)ureido)-cyclohexyl)acetamide] has an IC50 greater than 1000 nM.
In the case of `COCc1ccc(NC(=O)N(c2ccccc2C(C)C)[C@H]2CC[C@H](C(=O)O)CC2)c(OCC(F)F)n1` [Example 318, (1r,4r)-4-(3-(2-(2,2-difluoroethoxy)-6-(methoxymethyl)pyridin-3-yl)-1-(2-isopropylphenyl)ureido)cyclohexane-1-carboxylic acid], the IC50 is reported as 100 to 1000 nM.
For `COc1ccc(NC(=O)N(c2ccccc2C(C)C)[C@H]2CC[C@](O)(C(F)(F)C(=O)O)CC2)c(OC(F)F)n1` [Example 322, 2-((1s,4s)-4-(3-(2-(difluoromethoxy)-6-methoxypyridin-3-yl)-1-(2-isopropylphenyl)ureido)-1-hydroxycyclohexyl)-2,2-difluoroacetic acid], the IC50 was less than 10 nM.
Work on `Cc1ccc(NC(=O)N(c2ccccc2C(C)C)C2CN(CCC3(C(=O)O)CCC3)C2)c(OC(F)F)n1` [Example 174] yielded an IC50 of 100 to 1000 nM.
`Cc1ccc(NC(=O)N(c2ccccc2C(C)C)[C@H]2C[C@H](C(=O)O)C2)c(OC(F)F)n1` [Example 161, trans-3-(3-(2-(difluoromethoxy)-6-methylpyridin-3-yl)-1-(2-isopropylphenyl)ureido)cyclobutane-1-carboxylic acid] was tested, and the IC50 was 10 to 100 nM.
`Cc1ccc(NC(=O)N(c2ccccc2C(C)C)[C@H]2C[C@@H](CC#N)C2)c(OC(F)F)n1` [Example 28, 1-((1r,3s)-3-(cyanomethyl)cyclobutyl)-3-(2-(difluoromethoxy)-6-methylpyridin-3-yl)-1-(2-isopropylphenyl)urea] showed an IC50 of 10 to 100 nM.
Work on `CC(C)Oc1ccc(NC(=O)N(c2ccccc2C(C)C)[C@H]2CC[C@H](C(=O)O)CC2)c(OCC(F)F)n1` [Example 259, (1r,4r)-4-(3-(2-(2,2-difluoroethoxy)-6-isopropoxypyridin-3-yl)-1-(2-isopropylphenyl)ureido)cyclohexane-1-carboxylic acid] yielded an IC50 of 10 to 100 nM.
Molecule `Cc1ccc(NC(=O)N(c2ccccc2C(C)C)C2CC3(C2)CN(C(=O)Cn2nccn2)C3)c(OC(F)F)n1` [Example 84, 1-(2-(2-(2H-1,2,3-triazol-2-yl)acetyl)-2-azaspiro[3.3]heptan-6-yl)-3-(2-(difluoromethoxy)-6-methylpyridin-3-yl)-1-(2-isopropylphenyl)urea] has an IC50 of 100 to 1000 nM.
`COc1ccc(NC(=O)N(c2ccccc2C(C)C)[C@H]2CCN(C3COC3)C2)c(OC(F)F)n1` [Example 38, (S)-3-(2-(difluoromethoxy)-6-methoxypyridin-3-yl)-1-(2-isopropylphenyl)-1-(1-(oxetan-3-yl)pyrrolidin-3-yl)urea] was tested, and the IC50 was 100 to 1000 nM.
`CC(C)c1ccccc1N(C(=O)Nc1cc(F)c(Cl)cc1OCC(F)F)[C@H]1CC[C@H](C(=O)O)CC1` [Example 334, (1r,4r)-4-(3-(4-chloro-2-(2,2-difluoroethoxy)-5-fluorophenyl)-1-(2-isopropylphenyl)ureido)cyclohexane-1-carboxylic acid] was tested, and the IC50 was less than 10 nM.
In the case of `CC(C)c1ccccc1N(C(=O)Nc1ccc(C2CC2)nc1OC(F)F)[C@H]1CC[C@H](C(=O)O)CC1` [Example 232], the IC50 is reported as 10 to 100 nM.
`Cc1ccc(NC(=O)N(c2ccccc2C(C)C)[C@H]2C[C@H](C(N)=O)C2)c(OC(F)F)n1` [Example 186, (1r,3r)-3-(3-(2-(difluoromethoxy)-6-methylpyridin-3-yl)-1-(2-isopropylphenyl)ureido)cyclobutane-1-carboxamide] was tested, and the IC50 was greater than 1000 nM.
In the case of `C#CCCS(=O)(=O)NC(=O)[C@H]1CC[C@H](N(C(=O)Nc2ccc(OC)nc2OC(F)F)c2ccccc2C(C)C)CC1` [Example 280], the IC50 is reported as less than 10 nM.
Molecule `COCC(=O)N1CC(N(C(=O)Nc2ccc(C)nc2OC(F)F)c2ccccc2C(C)C)C1` [Example 82, 3-(2-(difluoromethoxy)-6-methylpyridin-3-yl)-1-(2-isopropylphenyl)-1-(1-(2-methoxyacetyl)azetidin-3-yl)urea] has an IC50 of 10 to 100 nM.
For `Cc1ccc(NC(=O)N(c2ccccc2C(C)C)C2CC(=O)C2)c(OC(F)F)n1` [Example 195], the IC50 was 10 to 100 nM.
For `Cc1ccc(NC(=O)N(c2ccccc2C(C)C)C2CC3(CCC(C(=O)O)CC3)C2)c(OC(F)F)n1` (stereo not drawn) [Example 249], the IC50 was 10 to 100 nM.
`CC(=O)N1CC2(CCC(N(C(=O)Nc3ccc(C)nc3OC(F)F)c3ccccc3C(C)C)CC2)C1` [Example 250, 1-(2-acetyl-2-azaspiro[3.5]nonan-7-yl)-3-(2-(difluoromethoxy)-6-methylpyridin-3-yl)-1-(2-isopropylphenyl)urea] was tested, and the IC50 was 100 to 1000 nM.
In the case of `Cc1ccc(NC(=O)N(c2ccccc2C(C)C)[C@H]2C[C@@H](OCc3ccccc3)C2)c(OC(F)F)n1` [Example 24, 1-((1s,3s)-3-(benzyloxy)cyclobutyl)-3-(2-(difluoromethoxy)-6-methylpyridin-3-yl)-1-(2-isopropylphenyl)urea], the IC50 is reported as greater than 1000 nM.
In the case of `COc1cc(C(F)F)ncc1NC(=O)N(c1ccccc1C(C)C)[C@H]1CC[C@H](C(=O)O)CC1` [Example 294, (1r,4r)-4-(3-(6-(difluoromethyl)-4-methoxypyridin-3-yl)-1-(2-isopropylphenyl)ureido)cyclohexane-1-carboxylic acid], the IC50 is reported as 100 to 1000 nM.
With `COc1ccc(NC(=O)N(c2ccccc2C(C)C)[C@H]2CC[C@H](C(=O)NO)CC2)c(OC(F)F)n1` [Example 281] the IC50 was 10 to 100 nM.
`COc1ccc(NC(=O)N(c2ccccc2C(C)C)[C@H]2CCC[C@@H](C(=O)O)C2)c(OC(F)F)n1` [Example 147] showed an IC50 of less than 10 nM.
In the case of `Cc1ccc(NC(=O)N(CC2COC2)c2ccccc2C(C)C)c(OC(F)F)n1` [Example 15, 3-(2-(difluoromethoxy)-6-methylpyridin-3-yl)-1-(2-isopropylphenyl)-1-(oxetan-3-ylmethyl)urea], the IC50 is reported as 10 to 100 nM.
For `Cc1ccc(NC(=O)N(CC2CC(C(=O)O)C2)c2ccccc2C(C)C)c(OC(F)F)n1` (stereo not drawn) [Example 170], the IC50 was less than 10 nM.
`Cc1ccc(NC(=O)N(c2ccccc2C(C)C)[C@H]2C[C@@H](C(N)=O)C2)c(OC(F)F)n1` [Example 187] showed an IC50 greater than 1000 nM.
Work on `CC(=O)N1CC[C@@H]1CN(C(=O)Nc1ccc(C)nc1OC(F)F)c1ccccc1C(C)C` [Example 71, (R)-1-((1-acetylazetidin-2-yl)methyl)-3-(2-(difluoromethoxy)-6-methylpyridin-3-yl)-1-(2-isopropylphenyl)urea] yielded an IC50 greater than 1000 nM.

Same assay, conditions: LPAR1 IC50
`Cc1ccc(NC(=O)N(c2ccccc2C(C)C)C2CCN(C(=O)Cn3nccn3)CC2)c(OC(F)F)n1` [Example 79, 1-(1-(2-(2H-1,2,3-triazol-2-yl)acetyl)piperidin-4-yl)-3-(2-(difluoromethoxy)-6-methylpyridin-3-yl)-1-(2-isopropylphenyl)urea] showed an IC50 of less than 10 nM.
`COc1ccc(NC(=O)N(c2ccccc2C(C)C)[C@@H]2C[C@H]3CC[C@@H](C2)N3C(C)=O)c(OC(F)F)n1` [Example 54, 1-((1R,3s,5S)-8-acetyl-8-azabicyclo[3.2.1]octan-3-yl)-3-(2-(difluoromethoxy)-6-methoxypyridin-3-yl)-1-(2-isopropylphenyl)urea] was tested, and the IC50 was 10 to 100 nM.
With `CC(=O)N1CCC(N(C(=O)Nc2ccc(C)nc2OC(F)F)c2ccccc2C(F)F)CC1` [Example 34, 1-(1-acetylpiperidin-4-yl)-3-(2-(difluoromethoxy)-6-methylpyridin-3-yl)-1-(2-(difluoromethyl)phenyl)urea] the IC50 was greater than 1000 nM.
With `CCOc1nc(C)ccc1NC(=O)N(c1ccccc1C(C)C)C1CCN(C(C)=O)CC1` [Example 105] the IC50 was 100 to 1000 nM.
`COc1ccc(NC(=O)N(c2ccccc2C(C)C)[C@@H]2C[C@H]3C[C@@H]2CN3C(C)=O)c(OC(F)F)n1` [Example 58, 1-((1R,4R,5R)-2-acetyl-2-azabicyclo[2.2.1]heptan-5-yl)-3-(2-(difluoromethoxy)-6-methoxypyridin-3-yl)-1-(2-isopropylphenyl)urea] was tested, and the IC50 was greater than 1000 nM.
With `CC(=O)N1CCC(N(C(=O)Nc2ncc(Br)cc2OC(F)F)c2ccccc2C(C)C)CC1` [Example 129, 1-(1-acetylpiperidin-4-yl)-3-(5-bromo-3-(difluoromethoxy)pyridin-2-yl)-1-(2-isopropylphenyl)urea] the IC50 was 10 to 100 nM.
Work on `COc1ccc(NC(=O)N(c2ccccc2C(C)C)[C@@H]2CCN(C(C)=O)C[C@H]2F)c(OC(F)F)n1` (racemic) [Example 46, rac-1-((3R,4R)-1-acetyl-3-fluoropiperidin-4-yl)-3-(2-(difluoromethoxy)-6-methoxypyridin-3-yl)-1-(2-isopropylphenyl)urea] yielded an IC50 of 10 to 100 nM.
Molecule `Cc1ccc(NC(=O)N(c2ccccc2C(C)C)[C@H]2[C@@H]3CN(C(=O)OC(C)(C)C)C[C@@H]32)c(OC(F)F)n1` [Example 9, tert-butyl (1R,5S,6s)-6-(3-(2-(difluoromethoxy)-6-methylpyridin-3-yl)-1-(2-isopropylphenyl)ureido)-3-azabicyclo[3.1.0]hexane-3-carboxylate] has an IC50 greater than 1000 nM.
Work on `COc1nc(C#N)ccc1NC(=O)N(c1ccccc1C(C)C)C1CCN(C(C)=O)CC1` [Example 185, 1-(1-acetylpiperidin-4-yl)-3-(6-cyano-2-methoxypyridin-3-yl)-1-(2-isopropylphenyl)urea] yielded an IC50 of 100 to 1000 nM.

Reference: patent US20250034110A1, “LPAR1 ANTAGONISTS AND USES THEREOF” (Pipeline Therapeutics, Inc., priority 2021, published 2025)
